Test results published in EPA's ToxRefDB 2.

What was measured:
[1] = tested on: rat; settings: Prenatal developmental toxicity study; wistar; Injection; Intravenous; dose end: 18 GD; group: maternal; systemic / in life observation / body weight / body weight gain + systemic / in life observation / clinical signs / motor activity + …
[2] = tested on: dog; settings: Chronic toxicity, beagle, Oral, Capsule, dose end: 1 year, group: systemic
[3] = tested on: dog; settings: Subchronic oral toxicity in nonrodent, beagle, Capsule, dose end: 3 month, group: systemic, systemic / clinical chemistry / alanine aminotransferase (alt/sgpt) / alanine aminotransferase (alt/sgpt)
[4] = tested on: rat; settings: Subchronic oral toxicity in rodents; wistar; Injection; Intravenous; dose end: 3 month; group: systemic; systemic / clinical chemistry / urea nitrogen / urea + systemic / hematology / erythrocyte (rbc) count differential / erythrocyte (rbc) + …
[5] = tested on: mouse; settings: Fertility (Segment I); other; Injection; Intravenous; dose end: 3 GD; group: parental; systemic / in life observation / clinical signs / motor activity
[6] = tested on: rat; settings: Fertility (Segment I), wistar, Injection, Intravenous, dose end: 26 PND
[7] = tested on: dog; settings: Chronic toxicity, beagle, Oral, Capsule, dose end: 6 month, group: systemic
[8] = tested on: mouse; settings: Carcinogenicity; cd1; Oral; Feed; dose end: 18 month; group: systemic; systemic / pathology microscopic / stomach / hyperplasia
[9] = tested on: rat; settings: Combined chronic toxicity/carcinogenicity; sprague dawley; Oral; Feed; dose end: 104 week; group: systemic; systemic / pathology microscopic / liver / hypertrophy + systemic / pathology microscopic / stomach / hyperkeratosis + systemic / pathology …
[10] = tested on: dog; settings: Chronic toxicity, beagle, Oral, Feed, dose end: 52 week, group: systemic
[11] = tested on: rat; settings: Multigenerational reproductive toxicity study, sprague dawley, Oral, Feed, dose end: 2 generation
[12] = tested on: dog; settings: Chronic toxicity, beagle, Oral, Feed, dose end: 104 week, group: systemic
[13] = tested on: dog; settings: Chronic toxicity, beagle, Oral, Capsule, dose end: 52 week, group: systemic
[14] = tested on: mouse; settings: Carcinogenicity, cd1, Oral, Feed, dose end: 24 month, group: systemic
[15] = tested on: mouse; settings: Combined chronic toxicity/carcinogenicity; cd1; Oral; Feed; dose end: 24 month; group: systemic; systemic / pathology microscopic / stomach / carcinoma + systemic / organ weight / kidney / nos + systemic / organ weight / ovary / relative…
[16] = tested on: dog; settings: Subchronic oral toxicity in nonrodent, beagle, Feed, dose end: 13 week, group: systemic
[17] = tested on: rat; settings: Combined chronic toxicity/carcinogenicity, fischer, Oral, Feed, dose end: 129 week, group: systemic
[18] = tested on: rat; settings: Multigenerational reproductive toxicity study, Crl: CD BR, Oral, Feed, dose end: 2 generation
[19] = systemic / clinical chemistry / alanine aminotransferase (alt/sgpt) / alanine aminotransferase (alt/sgpt)
[20] = systemic / clinical chemistry / alanine aminotransferase (alt/sgpt) / alanine aminotransferase (alt/sgpt) + systemic / clinical chemistry / …
[21] = group: developmental, developmental / offspring survival late / viability index / viability index
[22] = group: maternal, reproductive / reproductive performance / pregnancy / pregnancy
[23] = group: offspring, systemic / in life observation / clinical signs / [other] + systemic / in life observation / clinical signs / abnormal gait + systemic / in …
[24] = group: offspring, systemic / in life observation / clinical signs / abnormal gait + systemic / in life observation / clinical signs / convulsions + systemic…
[25] = group: parental, systemic / in life observation / body weight / body weight gain + systemic / in life observation / clinical signs / [other] + systemic / in …
[26] = systemic / clinical chemistry / alanine aminotransferase (alt/sgpt) / alanine aminotransferase (alt/sgpt) + systemic / in life observation…
[27] = systemic / pathology gross / stomach / adhesions + systemic / pathology gross / stomach / thickened + systemic / pathology microscopic / …
[28] = systemic / pathology microscopic / stomach / congestion + systemic / pathology microscopic / stomach / mineralization + systemic / clinical …
[29] = group: offspring, systemic / in life observation / body weight / offspring (pup) weight
[30] = group: parental, systemic / pathology microscopic / stomach / hyperkeratosis + systemic / pathology microscopic / stomach / hyperplasia + systemic / …
[31] = systemic / clinical chemistry / bilirubin / total bilirubin
[32] = systemic / organ weight / liver / relative to body weight
[33] = systemic / pathology microscopic / liver / inflammation + systemic / clinical chemistry / alanine aminotransferase (alt/sgpt) / alanine …
[34] = systemic / pathology microscopic / kidney / adenoma + systemic / pathology microscopic / kidney / carcinoma
[35] = systemic / pathology microscopic / kidney / adenoma + systemic / pathology microscopic / kidney / carcinoma + systemic / pathology …
[36] = group: offspring, systemic / pathology gross / stomach / irregular surface + systemic / pathology gross / stomach / thickened + systemic / pathology …
[37] = group: parental, systemic / organ weight / kidney / relative to body weight + systemic / pathology gross / stomach / irregular surface + systemic / pathology…

In the case of `CC(C)c1ccc(C(=O)N=C(N)N)cc1S(C)(=O)=O.CS(=O)(=O)O` [Cariporide mesylate], the LEL [1] is reported as 125 mg/kg/day, the LOAEL [1] is reported as greater than 125 mg/kg/day and the NEL [1] is reported as 25 mg/kg/day. The NOAEL [1] was no less than 125 mg/kg/day, the LEL [2, 19] was 3.2 mg/kg/day and the NEL [2, 19] was less than 3.2 mg/kg/day. It also gave an LOAEL [2, 20] greater than 20 mg/kg/day, an NOAEL [2, 20] of no less than 20 mg/kg/day and an LEL [3] of 8 mg/kg/day. The LOAEL [3] was greater than 20 mg/kg/day, the NEL [3] was 3.2 mg/kg/day and the NOAEL [3] was no less than 20 mg/kg/day. It also gave an LEL [4] of 125 mg/kg/day, an LOAEL [4] of 125 mg/kg/day and an NEL [4] of 25 mg/kg/day. It also gave an NOAEL [4] of 25 mg/kg/day, an LEL [5] of 150 mg/kg/day and an LOAEL [5] greater than 150 mg/kg/day. For the same compound, the NEL [5] was 50 mg/kg/day, the NOAEL [5] was no less than 150 mg/kg/day and the LEL [6, 21] was 125 mg/kg/day. It also gave an LOAEL [6, 21] greater than 125 mg/kg/day, an NEL [6, 21] of 25 mg/kg/day and an NOAEL [6, 21] of no less than 125 mg/kg/day. It also gave an LEL [6, 22] of 125 mg/kg/day, an LOAEL [6, 22] greater than 125 mg/kg/day and an NEL [6, 22] of 25 mg/kg/day. The NOAEL [6, 22] was no less than 125 mg/kg/day, the LOAEL [6, 23] was greater than 125 mg/kg/day and the NOAEL [6, 23] was no less than 125 mg/kg/day. It also gave an LEL [6, 24] of 5 mg/kg/day, an NEL [6, 24] of less than 5 mg/kg/day and an LEL [6, 25] of 125 mg/kg/day. It also gave an LOAEL [6, 25] greater than 125 mg/kg/day, an NEL [6, 25] of 25 mg/kg/day and an NOAEL [6, 25] of no less than 125 mg/kg/day. The LEL [7, 19] was 8 mg/kg/day, the LOAEL [7, 26] was greater than 20 mg/kg/day and the NEL [7, 26] was 3.2 mg/kg/day. It also gave an NOAEL [7, 26] of no less than 20 mg/kg/day.

Work on `N#Cc1c(Cl)c(Cl)c(Cl)c(C#N)c1Cl` [Chlorothalonil] yielded an LEL [8] of 1.9 mg/kg/day, an LOAEL [8] of 1.9 mg/kg/day and an NEL [8] of less than 1.9 mg/kg/day. For the same compound, the NOAEL [8] was less than 1.9 mg/kg/day, the LEL [9] was 0.7 mg/kg/day and the LOAEL [9] was 0.9 mg/kg/day. It also gave an NEL [9] of less than 0.7 mg/kg/day, an NOAEL [9] of less than 0.9 mg/kg/day and an LOAEL [10, 27] of 43.3 mg/kg/day. The NOAEL [10, 27] was 5.1 mg/kg/day, the LEL [10, 28] was 5.1 mg/kg/day and the NEL [10, 28] was less than 5.1 mg/kg/day. It also gave an LEL [11, 29] of 38 mg/kg/day, an LOAEL [11, 29] of 234 mg/kg/day and an NEL [11, 29] of less than 38 mg/kg/day. It also gave an NOAEL [11, 29] of 115 mg/kg/day, an LEL [11, 30] of 38 mg/kg/day and an LOAEL [11, 30] of 38 mg/kg/day. It also gave an NEL [11, 30] of less than 38 mg/kg/day, an NOAEL [11, 30] of less than 38 mg/kg/day and an LEL [12, 31] of 1.8 mg/kg/day. The NEL [12, 31] was less than 1.8 mg/kg/day, the LOAEL ([12]; systemic / pathology microscopic / kidney / vacuolization + systemic / clinical chemistry / bilirubin / total bilirubin) was 3.5 mg/kg/day and the NOAEL ([12]; systemic / pathology microscopic / kidney / vacuolization + systemic / pathology microscopic / kidney / pigmentation) was 1.8 mg/kg/day. The LEL [13, 19] was 15 mg/kg/day, the NEL [13, 19] was less than 15 mg/kg/day and the LOAEL ([13]; systemic / in life observation / body weight / body weight gain) was 500 mg/kg/day. For the same compound, the NOAEL ([13]; systemic / in life observation / body weight / body weight gain + systemic / clinical chemistry / alanine aminotransferase (alt/sgpt) / …) was 150 mg/kg/day, the LOAEL ([14]; systemic / in life observation / body weight / body weight) was 225 mg/kg/day and the NOAEL ([14]; systemic / in life observation / body weight / body weight + systemic / hematology / erythrocyte (rbc) count differential / erythrocyte (rbc…) was 112 mg/kg/day. For the same compound, the LEL [14, 32] was 56.2 mg/kg/day, the NEL [14, 32] was less than 56.2 mg/kg/day and the LEL [15] was 112 mg/kg/day. It also gave an LOAEL [15] of 112 mg/kg/day, an NEL [15] of less than 112 mg/kg/day and an NOAEL [15] of less than 112 mg/kg/day. The LOAEL ([16]; systemic / pathology microscopic / liver / infiltration cellular + systemic / pathology microscopic / liver / inflammation) was 56.5 mg/kg/day, the NOAEL ([16]; systemic / pathology microscopic / liver / infiltration cellular + systemic / pathology microscopic / liver / inflammation + systemic / …) was 5.6 mg/kg/day and the LEL [16, 33] was 5.6 mg/kg/day. For the same compound, the NEL [16, 33] was less than 5.6 mg/kg/day, the LOAEL [17, 34] was 40 mg/kg/day and the NOAEL [17, 34] was less than 40 mg/kg/day. For the same compound, the LEL [17, 35] was 40 mg/kg/day, the NEL [17, 35] was less than 40 mg/kg/day and the LEL [18, 36] was 32.9 mg/kg/day. The LOAEL [18, 36] was 32.9 mg/kg/day, the NEL [18, 36] was less than 32.9 mg/kg/day and the NOAEL [18, 36] was less than 32.9 mg/kg/day. For the same compound, the LEL [18, 37] was 28.6 mg/kg/day, the LOAEL [18, 37] was 28.6 mg/kg/day and the NEL [18, 37] was less than 28.6 mg/kg/day. The NOAEL [18, 37] was less than 28.6 mg/kg/day.
